Consider two molecules from paper PMC9005681, “Use of AD Informer Set compounds to explore validity of novel targets in Alzheimer's disease pathology” (Alzheimer's & Dementia : Translational Research & Clinical …, 2022).

Data set [1] concerns cellular system. Also on record: method as in column References for potency and dosing (the 5th table c13). The settings on record: published data; References for potency and dosing; cited from earlier work.
In data set [2] the target is T1, cloned human or rodent CNS receptors, channels, and transporters (PDSP panel) (Homo sapiens, UniProt P35368).
T1 construct: expressed in transfected cells
T1 sequence (P35368 1-520): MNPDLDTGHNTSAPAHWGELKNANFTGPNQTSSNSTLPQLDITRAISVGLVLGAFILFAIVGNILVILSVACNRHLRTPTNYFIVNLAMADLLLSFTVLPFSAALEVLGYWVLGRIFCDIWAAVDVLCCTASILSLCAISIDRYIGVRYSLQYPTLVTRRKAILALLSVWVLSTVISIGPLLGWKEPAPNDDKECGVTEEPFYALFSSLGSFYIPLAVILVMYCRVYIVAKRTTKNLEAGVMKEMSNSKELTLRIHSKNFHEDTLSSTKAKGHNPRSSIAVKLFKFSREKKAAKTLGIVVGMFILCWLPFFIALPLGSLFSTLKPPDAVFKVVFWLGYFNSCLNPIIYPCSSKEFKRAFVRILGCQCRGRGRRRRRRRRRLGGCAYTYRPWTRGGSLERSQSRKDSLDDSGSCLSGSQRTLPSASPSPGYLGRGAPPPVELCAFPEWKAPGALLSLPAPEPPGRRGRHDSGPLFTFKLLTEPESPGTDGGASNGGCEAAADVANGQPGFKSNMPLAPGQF
Description: PDSP GPCR panel primary binding assays at 10 μM. The settings on record: Alpha1B, primary assay; for Mean %: mean inhibition; for Inhibition 1: replicate 1; for Inhibition 2: replicate 2; for Inhibition 3: replicate 3; for Inhibition 4: replicate 4. In outline:
(§1)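 Primary screen: 10 μM, quadruplicate, displacement of radio-labeled standard ligand. Hit cut-off >50% mean displacement → secondary 11-point dose-response, triplicate. H3, PBR, GABAA excluded from follow-up.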

In data set [3] the target is T2, cloned human or rodent CNS receptors, channels, and transporters (PDSP panel) (Cavia porcellus, UniProt Q60492).
T2 construct: expressed in transfected cells
Description: PDSP GPCR panel primary binding assays at 10 μM. Conditions: Sigma 1, primary assay; for Inhibition 1: replicate 1; for Inhibition 2: replicate 2; for Inhibition 3: replicate 3; for Inhibition 4: replicate 4. The gist of the method: as §1

The target of data set [4] is T3, cloned human or rodent CNS receptors, channels, and transporters (PDSP panel) (Rattus norvegicus, UniProt Q5U3Y7).
T3 construct: expressed in transfected cells
T3 sequence (Q5U3Y7 1-176): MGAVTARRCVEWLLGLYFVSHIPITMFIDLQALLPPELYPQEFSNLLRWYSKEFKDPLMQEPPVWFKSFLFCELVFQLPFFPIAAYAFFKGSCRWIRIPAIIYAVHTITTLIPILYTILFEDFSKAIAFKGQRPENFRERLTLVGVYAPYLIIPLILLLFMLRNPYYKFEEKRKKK
Description: PDSP GPCR panel primary binding assays at 10 μM. The settings on record: Sigma 2, primary assay; for Inhibition 1: replicate 1; for Inhibition 2: replicate 2; for Inhibition 3: replicate 3; for Inhibition 4: replicate 4. The gist of the method: as §1

Data set [5] has as its system CAPN2. Details: method as in Probe Miner, PubMed 9637399, 31133534, 30052328. The settings on record: published affinity; ref Probe Miner, PubMed 9637399, 31133534, 30052328; cited from earlier work.
Data set [6] is described as follows: Plasma plus brain concentrations at 1 h after IV dose. It counts as in vivo. Conditions: mouse, brain and plasma, CD1 mice, IV 10 mg/kg. Here is the method: Compounds with acceptable PK were dosed IV at 10 mg/kg and plasma plus brain
concentrations measured at 1h in CD1 mice (3 mice per cohort, Table 2). […]

For data set [7] the following is noted: aqueous, neutral pH (7.4); cited from earlier work.

T2 sequence (Q60492 whole entry): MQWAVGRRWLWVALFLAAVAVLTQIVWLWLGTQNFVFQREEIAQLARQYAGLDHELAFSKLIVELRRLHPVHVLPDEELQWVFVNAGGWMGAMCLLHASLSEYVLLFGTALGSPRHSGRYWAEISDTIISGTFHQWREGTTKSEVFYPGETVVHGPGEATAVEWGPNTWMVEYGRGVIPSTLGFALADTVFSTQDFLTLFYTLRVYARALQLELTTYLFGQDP

Turning to MDL 28170 [UNC10302675A], the “Reported as cell active (<10 μM)” value in data set [1] was “Y (Published data supports that the compound is active in a cellular system when dosed at 10 μM (Y/N))”. In addition, in data set [2], the Mean % was -5.99%, the “Inhibition 1” value is recorded as -0.72%, the “Inhibition 2” value is -4.38% and the “Inhibition 3” value was -14.01%. In addition, the “Inhibition 4” value in data set [2] was -4.84%. Besides, in data set [3], the “Inhibition 1” value is 35.86%, the “Inhibition 2” value was 2.45%, the “Inhibition 3” value is given as -0.62% and the “Inhibition 4” value is recorded as -14.57%. Moreover, in data set [4], the “Inhibition 1” value was determined as 37.24%, the “Inhibition 2” value turned out to be 22.17%, the “Inhibition 3” value came to 24.38% and the “Inhibition 4” value came out at 22.39%. Moreover, the “Reported on-target biochemical potency, CAPN2” value in data set [5] is 0.01 nM.
Take `O=C(NC1CC1)C(=O)C(Cc1ccccc1)NC(=O)[C@H]1CCC(=O)N1Cc1ccccc1` (some centres unmarked) [UNC10302676A, ABT-957 (Alicapistat)]: the “Reported as cell active (<10 μM)” value in data set [1] is reported as “Y (Published data supports that the compound is active in a cellular system when dosed at 10 μM (Y/N))”. Also, the concentration ratio (Kp) at 1 h in data set [6] was 0.015. Further, in data set [2], the Mean % is -8.47%, the “Inhibition 1” value is -8.91%, the “Inhibition 2” value is listed as -13.01% and the “Inhibition 3” value was -14.75%. In addition, in data set [2], the “Inhibition 4” value came out at 2.78%. Further, in data set [3], the “Inhibition 1” value amounted to 5.01%, the “Inhibition 2” value is listed as -7.02%, the “Inhibition 3” value was -4.4% and the “Inhibition 4” value is on record as -3.65%. In data set [4], the “Inhibition 1” value came to 16.59%, the “Inhibition 2” value turned out to be 3.8%, the “Inhibition 3” value is 13.22% and the “Inhibition 4” value was -4.38%. The Kinetic solubility in data set [7] is 176.5 µM. The “Reported on-target biochemical potency, CAPN2” value in data set [5] is recorded as 56 nM.
